Test results: patent US12357603B2, “Acyl sulfonamides for treating cancer” (Bayer Aktiengesellschaft, priority 2019, dated 2025)

Key:
[1] = biological target: Recombinant human His-tagged Kat6a protein (amino acids 194-810) (Homo sapiens (Human), UniProt Q92794); experiment: Kat6a activity assay (TR-FRET, acetylation of biotinylated Histone-H4-derived peptide); type: biochemical; details: 60 mins at 22° C., read-out: KAT6A-DPF/HAT domain IC50 [mol/l] (arithmetic mean)
Source text: Kat6a inhibitory activities of the compounds described in the present invention were quantified using a Fluorescence Resonance Energy Transfer (TR-FRET) assay which measures acetylation of a synthetic, biotinylated Histone-H4-derived peptide by the enzyme.
Recombinant human His-tagged Kat6a protein (amino acids 194-810), was purified in-house from Baculovirus-infected insect cells (Sf9). Histone H4 peptide (amino acids 1-24, […]-VLRD-K(Btn)-amide), which was used as substrate, was synthesized by Biosyntan GmbH, Berlin, Germany. Acetyl Coenzyme A was purchased from Sigma-Aldrich (#A-2056).
Kat6a was incubated for 60 mins at 22° C. in the presence of different concentrations of test substances (0 μM, and within the range 0.01-20 μM) in assay buffer [25 mM Tris/HCl pH 8, 1 mM EGTA, 2.5 mM Glutathion, 0.02% Chicken Albumin, 0.05% Pluronic F127, 25 mM NaCl, 220 nM H4 peptide and 600 nM Acetyl Coenzym A].
The reaction was stopped by addition of Detection Solution (25 mM HEPES pH 7.5, 0.1% BSA, 22 nM SAXL665 (Cisbio #610SAXLE), 100 μM Anacardic Acid (Enzo #ALX-270-381), 1 nM Anti-Histone H4 (ACETYL K8) Antibody (ABCAM #AB15823) and 0.5 nM Anti-Rabbit IgG Eu (Perkin Elmer #AD0083).
The fluorescence emission at 620 nm and 665 nm after excitation at 330-350 nm was measured in a TR-FRET measuring instrument, for instance a Rubystar or a Pherastar (both from BMG Lab Technologies, Offenburg, Germany) or a Viewlux (Perkin-Elmer). The ratio of the emission at 665 nm and at […] was used as indicator of the amount of acetylated peptide.
The resulting data (ratio) were normalized, taking 0% inhibition as the mean value of control measurements where all reagents were included. In this case 50 nl DMSO were used instead of compounds. […] IC50 values were determined by regression analysis based on a 4 parameter equation (minimum, maximum, ICM, Hill; Y=Max+(Min−Max)/(1+(X/ICso) Hill) using the Screener Software (Genedata).
Table 5 depicts the IC50 values of selected examples in biochemical KAT6A and KAT6B3 assays.

[2] = tested on: ESR1 transcription (luciferase signal in MVLN cells); experiment: Repression of ESR1 transcription, luciferase reporter in MVLN cells; type: cell-based; details: Homo sapiens, MVLN, inhibition of luciferase signal in MVLN cells; arithmetic mean
Source text: Repression of ESR1 Transcription Upon Treatment of Cells with Compounds
KAT6A controls transcription of the ESR1 gene in breast cancer cells. Compound treatment that interferes with this mechanism was quantified using MVLN cells. These cells constitutively express the ER and are stably transfected with the luciferase (LUC) reporter gene and the corresponding hormone responsive element derived from the 5′-flanking region of the Xenopus Vitellogenin A2 gene (Pons et al., 1990, Demirpense et al., 1993, Joyeux et al., 1993). The repressive effect on ERα transcription activity of a test chemical is directly related to the luciferase measured in the lysate of treated MVLN cells.
Each sample was prepared as duplicate and rim wells were excluded. For luciferase signal determination 100 μl of a 1:1 mixture of Steadylite plus (Perkin Elmer; 6016759) and assay medium was added after 24 h for 15 minutes and measured in Victor X3 (Perkin Elmer). To exclude any effects caused by cell loss during the treatment, cell density was determined using Alamar Blue (Invitrogen; DAL1100). Prior to the luciferase measurement 10 μl Alamar Blue were added to each well and the plates were incubated for 2 h in the incubator. Then fluorescence was measured with Victor X3 (Perkin Elmer) at 530 nm/590 nm.

ZR-75-1 cells = experiment: Proliferation assay ZR-75-1 (Alamar Blue, 144 h); type: cell-based; details: Homo sapiens, ZR-75-1, 144 h, arithmetic mean, read-out: ZR75-1 proliferation assay, EC50 [M] (arithmetic mean)
Source text: (§1) Proliferation Assays for Compound Characterization
(§2) For compound characterization cell survival assays were routinely run in two cell lines. ZR-75-1 is a breast carcinoma cell line containing a focal KAT6A amplification and high KAT6A protein expression. Proliferation of this cell line is inhibited upon treatment with KAT6A inhibitors. As a negative control cell line MDA-MB-436 were used. These cells carry a […] deletion of the KAT6A gene, have a low KAT6A protein expression and are not growth inhibited upon treatment with KAT6A inhibitors.
(§3) For measurements cell lines were plated at the below indicated concentration per […] in 96-well plates in a humidified incubator at 37° C. and 5% CO2.
ZR-75-1 (ATCC, CRL-1500; breast carcinoma); 3000 cells per well; culture medium: RPMI 1640 (Biochrom #FG 1215) medium containing 2.5% FBS (Biochrom #S0615).
(§4) 24 hours later, cells were treated with compounds (stock solution, 10 mM in DMSO) using the HP D300 Digital Dispenser in a concentration range of 2.0×10E-5 M to 2.0×10E-9 M in a single-dot curve with 9 dilutions and a DMSO concentration of 0.2%. Each sample was prepared as triplicate and rim wells were excluded. Plates were incubated at 37° C. and 5% CO2 for 144 h. Cell viability was measured by adding 10 μL of Alamar Blue Reagent (Invitrogen #DAL 1100) and plates were incubated for 2 h at 37° C. and 5% CO2. Fluorescence was measured at 590 nm wavelength with a Tecan Spark or Victor X3 MTP-Reader (PerkinElmer).

MDA-MB-436 cells = experiment: Proliferation assay MDA-MB-436, negative control cell line (Alamar Blue, 144 h); type: cell-based; details: Homo sapiens, MDA-MB-436, 144 h, arithmetic mean
Source text: as §1, §2, §3
MDA-MB-436 (CLS, 300278; breast adenocarcinoma); 3000 cells per well; culture medium: DMEM/Ham's F12 (Biochrom #FG 4815) medium containing 2.5% FBS (Biochrom #S0615).
as §4

Sequence of Recombinant human His-tagged Kat6a protein (amino acids 194-810) (Q92794 194-810): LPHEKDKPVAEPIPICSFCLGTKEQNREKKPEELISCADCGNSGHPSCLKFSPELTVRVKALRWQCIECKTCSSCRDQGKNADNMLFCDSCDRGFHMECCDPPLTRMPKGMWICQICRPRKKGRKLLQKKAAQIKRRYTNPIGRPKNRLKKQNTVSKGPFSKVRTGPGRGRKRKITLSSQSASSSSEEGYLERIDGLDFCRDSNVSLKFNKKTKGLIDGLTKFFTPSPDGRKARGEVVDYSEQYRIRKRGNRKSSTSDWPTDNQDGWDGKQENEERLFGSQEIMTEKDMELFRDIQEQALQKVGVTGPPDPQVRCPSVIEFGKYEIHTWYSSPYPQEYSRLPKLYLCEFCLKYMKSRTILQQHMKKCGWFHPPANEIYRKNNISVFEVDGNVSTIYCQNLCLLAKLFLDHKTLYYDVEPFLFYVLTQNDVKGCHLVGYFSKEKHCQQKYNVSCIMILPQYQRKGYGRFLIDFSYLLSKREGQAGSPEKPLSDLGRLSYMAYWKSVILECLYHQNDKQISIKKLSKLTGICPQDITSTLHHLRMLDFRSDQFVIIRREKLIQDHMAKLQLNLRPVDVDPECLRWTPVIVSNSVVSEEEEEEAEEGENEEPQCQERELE

SMILES	IC50 [1] [µM]	IC50 [2] [µM]	EC50 (ZR-75-1 cells) [M]	EC50 (MDA-MB-436 cells) [µM]
CC1CCCN1c1ccc2cc(C(=O)NS(=O)(=O)c3ccccc3-c3ccccc3)oc2c1 (racemic) [Example 44, N-([1,1′-Biphenyl]-2-sulfonyl)-6-[2-methylpyrrolidin-1-yl]-1-benzofuran-2-carboxamide (rac)]	3.17	> 20	> 2e-05	> 20
CC(Oc1ccccc1S(=O)(=O)NC(=O)c1cc2ccc(N(C)C)cc2o1)C(F)(F)F (racemic) [Example 135, 6-(Dimethylamino)-N-(2-[-1,1,1-trifluoropropan-2-yl)oxy]benzene-1-sulfonyl)-1-benzofuran-2-carboxamide (rac)]	0.0579	0.0686	1.46e-07	> 20
CCOc1ccc(C(C)CC)cc1S(=O)(=O)NC(=O)c1cc2ccc(N(C)C)cc2o1 (racemic) [Example 170, 6-(Dimethylamino)-N-(2-ethoxy-5-sec-butyl-phenyl)sulfonyl-benzofuran-2-carboxamide (rac)]	0.0044	0.0221	3.02e-08	> 20
CN(C)c1ccc2cc(C(=O)NS(=O)(=O)c3ccc(Cl)cc3Cl)oc2c1 [Example 27, N-(2,4-Dichlorobenzene-1-sulfonyl)-6-(dimethylamino)-1-benzofuran-2-carboxamide]	0.134	1.75	1.73e-06	> 20
CN1Cc2cccc(S(=O)(=O)NC(=O)c3cc4ccc(N(C)C)cc4o3)c2C1=O [Example 95, 6-(Dimethylamino)-N-(2-methyl-3-oxo-2,3-dihydro-1H-isoindole-4-sulfonyl)-1-benzofuran-2-carboxamide]	0.15	0.488	7.18e-07	> 20
CN(C)c1ccc2cc(C(=O)NS(=O)(=O)c3ccccc3OC(F)(F)C(F)(F)F)oc2c1 [Example 96, 6-(Dimethylamino)-N-[2-(pentafluoroethoxy)benzene-1-sulfonyl]-1-benzofuran-2-carboxamide]	0.26	0.556	1e-06	> 20
CN(C)c1ccc2cc(C(=O)NS(=O)(=O)c3c(Cl)cccc3C(F)(F)F)oc2c1 [Example 97, N-[2-Chloro-6-(trifluoromethyl)benzene-1-sulfonyl]-6-(dimethylamino)-1-benzofuran-2-carboxamide]	0.465	0.571	6.15e-07	> 20
CN(C)c1ccc2cc(C(=O)NS(=O)(=O)c3ccccc3)oc2c1 [Example 99, N-(benzenesulfonyl)-6-(dimethylamino)-1-benzofuran-2-carboxamide]	0.645	0.672	6.63e-07	> 20
Cc1cc(Cn2cccn2)cc(S(=O)(=O)NC(=O)c2cc3ccc(N(C)C)cc3o2)c1C [Example 100]	0.177	0.974	1.12e-06	> 20
CCc1ccc(Cn2cccn2)cc1S(=O)(=O)NC(=O)c1cc2ccc(N(C)C)cc2o1 [Example 102, 6-(Dimethylamino)-N-{2-ethyl-5-[(1H-pyrazol-1-yl)methyl]benzene-1-sulfonyl}-1-benzofuran-2-carboxamide]	0.489	1.47	1.95e-06	> 20
COc1cc(S(=O)(=O)NC(=O)c2cc3ccc(N(C)C)cc3o2)cc(Cn2cccn2)c1OC [Example 103, N-{3,4-Dimethoxy-5-[(1H-pyrazol-1-yl)methyl]benzene-1-sulfonyl}-6-(dimethylamino)-1-benzofuran-2-carboxamide]	1.21	2.95	2.6e-06	> 20
CCc1ccccc1S(=O)(=O)NC(=O)c1cc2ccc(N(C)C)cc2o1 [Example 104, 6-(Dimethylamino)-N-(2-ethylbenzene-1-sulfonyl)-1-benzofuran-2-carboxamide]	1.1	3.19	3e-06	> 20
Cc1cccnc1CS(=O)(=O)NC(=O)c1cc2ccc(N(C)C)cc2o1 [Example 105, 6-(Dimethylamino)-N-[(3-methylpyridin-2-yl)methanesulfonyl]-1-benzofuran-2-carboxamide]	1.96	11.6	3.72e-06	> 20
Cc1ccc2cccc(S(=O)(=O)NC(=O)c3cc4c(F)cc(N(C)C)cc4o3)c2n1 [Example 108, 6-(Dimethylamino)-4-fluoro-N-(2-methylquinoline-8-sulfonyl)-1-benzofuran-2-carboxamide]	0.0046	0.0091	8.07e-08	> 18.6
CC(C)Oc1ccccc1S(=O)(=O)NC(=O)c1cc2c(F)cc(N(C)C)cc2o1 [Example 109, 6-(Dimethylamino)-4-fluoro-N-{2-[(propan-2-yl)oxy]benzene-1-sulfonyl}-1-benzofuran-2-carboxamide]	0.00709	0.00967	3.7e-08	> 20
CN(C)c1ccc2cc(C(=O)NS(=O)(=O)c3ccc(Br)cc3OC(F)(F)F)oc2c1 [Example 118, N-[4-Bromo-2-(trifluoromethoxy)benzene-1-sulfonyl]-6-(dimethylamino)-1-benzofuran-2-carboxamide]	0.0524	0.555	9.57e-07	> 20
CC(C)Oc1ccccc1S(=O)(=O)NC(=O)c1cc2cc(Br)c(N(C)C)cc2o1 [Example 208, 5-Bromo-6-(dimethylamino)-N-{2-[(propan-2-yl)oxy]benzene-1-sulfonyl}-1-benzofuran-2-carboxamide]		14.6	1.83e-05	> 20
CCOc1ccc(Br)cc1S(=O)(=O)NC(=O)c1cc2ccc(N(C)CCOC)cc2o1 [Example 213, N-(5-Bromo-2-ethoxybenzene-1-sulfonyl)-6-[(2-methoxyethyl)(methyl)amino]-1-benzofuran-2-carboxamide]		9.88	8.48e-06	> 20
